The target of the assay is T1, MYLK2 (skMLCK) (Homo sapiens, UniProt Q9H1R3).
T1 construct: purchased Thermo Fisher Scientific (Life Technologies) SelectScreen
Kind of assay: SelectScreen Z'LYTE. The assay is classed as biochemical. In outline:
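Percent values come from Thermo SelectScreen profiling of NU5455, combining activity and binding assays. CSF1R was run in Z'LYTE format at Km app ATP, and CAMK1 in Adapta format with ATP listed at 10.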

T1 sequence (Q9H1R3 whole entry): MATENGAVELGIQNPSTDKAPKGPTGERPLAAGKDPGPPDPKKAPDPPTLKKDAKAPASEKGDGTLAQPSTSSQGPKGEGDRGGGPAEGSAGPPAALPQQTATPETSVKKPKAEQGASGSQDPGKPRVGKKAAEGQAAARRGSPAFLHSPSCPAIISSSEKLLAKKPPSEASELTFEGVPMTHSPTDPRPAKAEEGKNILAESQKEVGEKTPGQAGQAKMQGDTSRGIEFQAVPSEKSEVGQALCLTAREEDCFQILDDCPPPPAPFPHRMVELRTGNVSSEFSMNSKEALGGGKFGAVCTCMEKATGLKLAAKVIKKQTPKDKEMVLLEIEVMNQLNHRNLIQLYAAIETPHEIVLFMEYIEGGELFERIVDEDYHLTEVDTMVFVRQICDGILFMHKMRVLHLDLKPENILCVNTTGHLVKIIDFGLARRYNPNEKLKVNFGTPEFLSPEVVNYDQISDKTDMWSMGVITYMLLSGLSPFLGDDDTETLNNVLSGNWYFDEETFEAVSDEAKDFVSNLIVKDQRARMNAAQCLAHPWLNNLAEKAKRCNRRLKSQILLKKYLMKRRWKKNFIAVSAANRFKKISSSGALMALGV

The term inhibition denotes the drop in the measured response relative to a control, in per cent. On to `CN(C(=O)CN1CCOCC1)c1ccc2sc3c(-c4cccc5c(=O)cc(N6CC7CCC(C6)O7)oc45)cccc3c2c1` [NU5455], for which the inhibition at 1 µM was -2.2%.
